This note sets out measurements from US20080153882A1, “Pharmaceutical Composition Comprising Ppar Regulator” (priority 2005, published 2008).

The test system of this assay is rat adjuvant arthritis model. Briefly: Anti-arthritic action in rat adjuvant arthritis model (footpad volume increase suppression). Type of assay: in vivo. The conditions noted are these: female Lewis rats, oral once a day, Compound No. 1 0.1 mg/kg, Formula (II) 10.0 mg/kg; for Footpad volume increase suppression ratio (%) After 11 days: right hind leg volume on day 11 after start of administration; for Footpad volume increase suppression ratio (%) After 18 days: right hind leg volume on day 18 after start of administration. How it is done:
A rat adjuvant arthritis model developing arthritis that is similar to human rheumatoid arthritis was used, and effect of the pharmaceutical composition according to the present invention with respect to the arthritis was evaluated by using footpad volume increase suppression rate as an indicator. Eight-week old female Lewis rats were used in the experiment.
Heat killed Mycobacterium butyricum was ground in an agate mortar, then suspended in dry heat sterilized liquid paraffin so as to have a concentration of 2 mg/ml, and treated with sonication to prepare an adjuvant.
The test compound was suspended or dissolved in a 0.5% tragacanth solution. As the test compound, the compound of Compound No. 1 described in Table 1 was used as the amino alcohol derivative, and the compound of the formula (II) was used as the PPAR regulator.
0.05 ml of the adjuvant prepared in (1) was injected subcutaneously into the footpad of right hind leg of rats, with respect to a control group and a test compound administration group. Here, 5 rats were used for each group. In addition, a normal control group was provided as a group without injection of the adjuvant.
The test compound prepared in (2) was orally administrated once a day in the amount of 5 ml/kg, […]. The control group was administered with only the 0.5% tragacanth solution in a similar manner.
After the start of administration, on day 11 and day 18, the volume of the right hind leg was measured by a leg volume measuring device, and the mean value of the swelling volume was calculated for each group.
The footpad volume increase suppression ratio (%) was calculated by the following equation, and evaluated.
Footpad volume increase suppression ratio (%)=(1-([footpad volume of test compound administration group]-[footpad volume of normal control group])/[footpad volume of control group]−[footpad volume of normal control group]))×100

On to `Cn1c(CC[C@@](C)(N)CO)ccc1C(=O)CCCCc1ccccc1` [Compound No. 1], for which the “Footpad volume increase suppression ratio (%) After 11 days” value is listed as 43.0% and the “Footpad volume increase suppression ratio (%) After 18 days” value is given as 44.8%.
In the same order, the values of `COc1ccc2nc(COc3ccc(CC4SC(=O)NC4=O)cc3)n(C)c2c1.Cl` (stereo not shown) [Formula (II), 5-[4-(6-methoxy-1-methyl-1-H-benzimidazol-2-ylmethoxy)benzyl]thiazoline-2,4-dione hydrochloride] are 24.7% and 30.1%.
